Source: the supplement of paper PMC10307832

Assays:
Assay in all cases: relative viability (nuclei count vs DMSO), 5 days (fraction); higher = more cells survive
AZD6482 + Vorinostat = compound: Cc1cc([C@@H](C)Nc2ccccc2C(=O)O)c2nc(N3CCOCC3)cc(=O)n2c1 [AZD6482] + O=C(CCCCCCC(=O)Nc1ccccc1)NO [Vorinostat] (partner 1 µM)
Summary of the method: (§1)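 Nuclei were stained with Hoechst during a one-step fixation (final 0.05% Triton X-100, 1% formaldehyde, 1 ug/ml Hoechst) carried out 5 days after dosing, then counted on 4× images. The cells, lung cancer lines in 1536-well plates, had been dosed by pin tool the day after seeding with one drug alone or a fixed anchor-drug dose plus five library-drug doses (not always all listed) in √10 steps. Relative viability is the nuclei count in treated wells divided by that in vehicle wells, and each value is the median of duplicate plates.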

[1] = compound: COc1cc2nc(N3CCCN(C)CC3)nc(NC3CCN(Cc4ccccc4)CC3)c2cc1OC + O=C(c1cc(Cc2n[nH]c(=O)c3ccccc23)ccc1F)N1CCN(C(=O)C2CC2)CC1 [Olaparib] (partner 8 µM)
Summary of the method: as §1

[2] = compound: COc1cc2nc(N3CCCN(C)CC3)nc(NC3CCN(Cc4ccccc4)CC3)c2cc1OC + Nc1nc2[nH]cc(CCc3ccc(C(=O)N[C@@H](CCC(=O)O)C(=O)O)cc3)c2c(=O)[nH]1 [Pemetrexed] (partner 0.2 µM)
Summary of the method: as §1

AZD6482 + Pictilisib = compound: Cc1cc([C@@H](C)Nc2ccccc2C(=O)O)c2nc(N3CCOCC3)cc(=O)n2c1 [AZD6482] + CS(=O)(=O)N1CCN(Cc2cc3nc(-c4cccc5[nH]ncc45)nc(N4CCOCC4)c3s2)CC1 [Pictilisib] (partner 1 µM)
Summary of the method: as §1

Cell Line	relative viability (AZD6482 + Vorinostat; first compound 0.08 µM)	relative viability (AZD6482 + Vorinostat; first compound 0.253 µM)	relative viability (AZD6482 + Vorinostat; first compound 0.8 µM)	relative viability (AZD6482 + Vorinostat; first compound 2.53 µM)	relative viability (AZD6482 + Vorinostat; first compound 8 µM)	relative viability ([1]; first compound 0.2 µM)	relative viability ([1]; first compound 0.6325 µM)	relative viability ([1]; first compound 2 µM)	relative viability ([1]; first compound 6.325 µM)	relative viability ([2]; first compound 0.2 µM)	relative viability ([2]; first compound 0.6325 µM)	relative viability ([2]; first compound 2 µM)	relative viability ([2]; first compound 6.325 µM)	relative viability (AZD6482 + Pictilisib; first compound 0.08 µM)	relative viability (AZD6482 + Pictilisib; first compound 0.253 µM)	relative viability (AZD6482 + Pictilisib; first compound 0.8 µM)	relative viability (AZD6482 + Pictilisib; first compound 2.53 µM)	relative viability (AZD6482 + Pictilisib; first compound 8 µM)
NCI-H358	0.494	0.648	0.672	0.347	0.56	0.51	0.628	0.644	0.568	0.174	0.168	0.17	0.173	0.274	0.386	0.276	0.202	0.358
NCI-H441	0.854	0.788	0.741		0.782	0.566	0.495	0.691	0.551	0.256	0.264	0.246	0.276	0.453	0.389	0.408	0.32	0.431
NCI-H460	0.599	0.797	0.895	0.344	0.594	0.425	0.397	0.37	0.323	0.063	0.0592	0.0662	0.0719	0.332	0.336	0.379	0.249	0.331
NCI-H520	0.599	0.467	0.496	0.273	0.319	0.332	0.321	0.324	0.144	0.608	0.622	0.573	0.183	0.254	0.197	0.27		0.316
NCI-H596	0.464	0.555	0.732	0.691	0.556	0.677	0.721	0.736	0.672	0.515	0.534	0.503	0.468	0.324	0.349	0.508	0.343	0.441
NCI-H647	0.63	0.55	0.473	0.41	0.619	0.517	0.443	0.537	0.242	0.161	0.199	0.19	0.152	0.358		0.38	0.249	0.408
NCI-H650	0.464	0.489	0.372	0.256	0.301	0.445	0.356	0.434	0.396	0.935	0.877	0.924	0.92	0.931		0.908	0.541	0.813
NCI-H661	0.794	0.825	0.914	0.736	0.846	0.731	0.713	0.822	0.782	0.882	0.894	0.904	0.923	0.326	0.353	0.484		0.356
